Literature values as cited in patent publication US20090005340A1, “Bioactive Agents Produced By Submerged Cultivation of a Basidiomycete Cell” (MediMush A/S, priority 2005, published 2009).

System: cytochrome P450s (CYPs)

Substance: Lentinan
- expression of cytochrome P450s (CYPs): suppress the expression
